Two compounds from patent US10995363B2, “Nucleotide analogs” (ABBOTT MOLECULAR INC., priority 2013, dated 2021) can be followed below.

Assay [1] deals with T1, Therminator II DNA polymerase (Thermococcus sp., UniProt Q56366, A485L/D141A/E143A/Y409V).
T1 construct: purchased New England BioLabs
Description: Polymerase extension assay: incorporation of 3′-O-propargyl-dNTP at the 3′ end of a primer on KRAS template. The format is biochemical, Thermococcus sp. 9∘N. The conditions noted are these: 2 mM MnCl2, KRAS template, 35 cycles, size analysis by gel electrophoresis. On the procedure:
During the development of embodiments of the technology provided herein, experiments were conducted to assess the incorporation of 3′-O-propargyl-dNTPs into a nucleic acid by a polymerase. In particular, experiments were conducted to evaluate the accurate incorporation of 3′-O-propargyl-dNTPs into a nucleic acid and to evaluate the terminating activity of the 3′-O-propargyl-dNTPs. To assess these characteristics of the nucleotide analogs provided herein, polymerase extension assays were conducted using a template nucleic acid having a sequence from human KRAS (e.g., KRAS exon 2 and flanking intron sequences) and a complementary primer (Table 2).
To test incorporation of a 3′-O-propargyl-dTTP into a nucleic acid, a polymerase extension reaction mix was assembled comprising 20 mM Tris-HCl, 10 mM (NH4)SO4, 10 mM KCl, 2 mM MnCl2, 0.1% Triton X-100, 200 μmol 3′-O-propargyl-dTTP, 6.25 μmol of primer R_ke2_trP1_T_bio (SEQ ID NO: 2), and 2 units of Therminator II DNA polymerase (New England BioLabs) in a 25-μl final reaction volume. A volume of 0.5 μmol of the KRAS template (SEQ ID NO: 1) was used as template (Table 2). The polymerase extension reaction was performed using a temperature cycling profile comprising exposing the reaction to a temperature of 95° C. for 2 minutes followed by 35 cycles of 95° C. for 15 seconds, 55° C. for 25 seconds, and 65° C. for 35 seconds.
(§1) After the polymerase extension reaction, 1 μl of the reaction mix was used directly for nucleic acid size analysis by gel electrophoresis (e.g., using an Agilent 2100 Bioanalyzer and High Sensitivity DNA Assay Chip).
Additional polymerase extension experiments were performed using the reaction conditions described above and replacing the 3′-O-propargyl-dTTP and the primer R_ke2_trP1_T_bio with 3′-O-propargyl-dATP and the primer R_ke2_trP1_A bio (SEQ ID NO: 3); 3′-O-propargyl-dCTP and the primer R_ke2_trP1_C bio (SEQ ID NO: 5); and 3′-O-propargyl dGTP and the primer R_ke2_trP1_G bio (SEQ ID NO: 4).

Assay [2] has as its target T1, Therminator II DNA polymerase. Description: Ladder fragment generation with natural dNTPs and one 3′-O-propargyl-dNTP. Conditions: natural dNTPs plus one 3′-O-propargyl-dNTP, KRAS template, 50 cycles. In kind it is biochemical, Thermococcus sp. 9∘N. On the procedure:
During the development of embodiments of the technology provided herein, experiments were conducted to assess using the nucleotide analogs of the present technology to generate nucleic acid fragments that terminate at base-specific positions. In particular, reaction mixtures were produced and tested that included both natural dNTPs and each of the 3′-O-propargyl-dNTPs individually.
To test the fragment generation by 3′-O-propargyl-dTTP, a DNA fragment generation reaction mix was prepared comprising 20 mM Tris-HCl, 10 mM (NH4)SO4, 10 mM KCl, 2 mM MnCl2, 0.1% Triton X-100, 1000 μmol dATP, 1000 μmol dCTP, 1000 μmol dGTP, 1000 μmol dTTP, 200 μmol 3′-O-propargyl-dTTP, 6.25 μmol of primer R_ke2_trP1_T_bio (SEQ ID NO: 2), and 2 units of THERMINATOR II DNA polymerase (New England BioLabs) in a 25-μl final reaction volume. A volume of 0.5 μmol of the KRAS template (SEQ ID NO: 1) was used as template. The polymerase extension reaction was performed using a temperature cycling profile comprising exposing the reaction to a temperature of 95° C. for 2 minutes followed by 50 cycles of 95° C. for 15 seconds, 55° C. for 25 seconds, and 65° C. for 35 seconds.
as §1
Additional polymerase extension experiments were performed using the reaction conditions described above and replacing the 3′-O-propargyl-dTTP with 3′-O-propargyl-dATP, 3′-O-propargyl-dCTP, or 3′-O-propargyl dGTP.

T1 sequence (Q56366 whole entry D141A/E143A/Y409V/A485L): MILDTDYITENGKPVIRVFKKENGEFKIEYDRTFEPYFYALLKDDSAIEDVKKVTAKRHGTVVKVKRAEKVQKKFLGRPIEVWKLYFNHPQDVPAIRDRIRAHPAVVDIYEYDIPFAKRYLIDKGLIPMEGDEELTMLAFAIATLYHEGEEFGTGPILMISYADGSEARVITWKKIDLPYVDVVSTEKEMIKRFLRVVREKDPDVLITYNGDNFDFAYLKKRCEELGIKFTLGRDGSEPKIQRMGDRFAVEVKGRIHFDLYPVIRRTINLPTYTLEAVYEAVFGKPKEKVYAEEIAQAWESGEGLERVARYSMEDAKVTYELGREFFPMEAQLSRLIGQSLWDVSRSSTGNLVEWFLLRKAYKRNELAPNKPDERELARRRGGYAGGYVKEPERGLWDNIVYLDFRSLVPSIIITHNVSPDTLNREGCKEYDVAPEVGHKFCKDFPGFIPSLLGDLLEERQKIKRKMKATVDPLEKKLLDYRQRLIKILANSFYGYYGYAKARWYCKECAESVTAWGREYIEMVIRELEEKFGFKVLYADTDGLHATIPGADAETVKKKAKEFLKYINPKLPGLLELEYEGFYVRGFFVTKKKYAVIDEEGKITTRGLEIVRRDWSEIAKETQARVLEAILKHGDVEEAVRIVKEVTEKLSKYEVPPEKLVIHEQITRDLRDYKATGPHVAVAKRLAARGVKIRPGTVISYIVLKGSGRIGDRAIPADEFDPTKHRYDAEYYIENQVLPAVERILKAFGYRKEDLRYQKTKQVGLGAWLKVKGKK

As to `C#CCO[C@H]1C[C@H](n2cnc3c(=O)[nH]c(N)nc32)O[C@@H]1COP(=O)(O)OP(=O)(O)OP(=O)(O)O` [3′-O-propargyl-dGTP, 3′-O-propargyl-2′-deoxyguanosine-5′-triphosphate], in assay [1], the “incorporation at the 3′ end of the primer” value is “successful incorporation”. The “generation of nucleic acid fragments terminated at base-specific positions” value in assay [2] is reported as “generated populations of nucleic acid fragments having a range of sizes corresponding to the expected lengths”.
In the case of `C#CCO[C@H]1C[C@H](n2cc(C)c(=O)[nH]c2=O)O[C@@H]1COP(=O)(O)OP(=O)(O)OP(=O)(O)O` [3′-O-propargyl-dTTP, 3′-O-propargyl-2′-deoxythymidine-5′-triphosphate], in assay [1], the “amounts of the two populations of nucleic acids (primer length vs primer plus one base)” value is “approximately equal” and the “incorporation at the 3′ end of the primer” value is given as “successful incorporation”. The “generation of nucleic acid fragments terminated at base-specific positions” value in assay [2] is listed as “generated a population of nucleic acid fragments having a range of sizes corresponding to the expected lengths”.
